Assay results: paper PMC8457062, “Beam Search for Automated Design and Scoring of Novel ROR Ligands with Machine Intelligence” (Angewandte Chemie (International Ed. in English), 2021)

How the values were obtained:
Format in all cases: cell-based
RORα = target: T1, RORα (Homo sapiens, UniProt P35398); experiment: Gal4-RORα hybrid reporter gene assay in HEK293T cells; details: for IC50: Gal4 hybrid reporter gene assay, inverse agonism, mean±S.E.M., n≥4
T1 construct: uniprot ID P35398-2, aa 266- 523; expressed in transfected cells; host or cells: HEK293T
T1 sequence (P35398 266-523): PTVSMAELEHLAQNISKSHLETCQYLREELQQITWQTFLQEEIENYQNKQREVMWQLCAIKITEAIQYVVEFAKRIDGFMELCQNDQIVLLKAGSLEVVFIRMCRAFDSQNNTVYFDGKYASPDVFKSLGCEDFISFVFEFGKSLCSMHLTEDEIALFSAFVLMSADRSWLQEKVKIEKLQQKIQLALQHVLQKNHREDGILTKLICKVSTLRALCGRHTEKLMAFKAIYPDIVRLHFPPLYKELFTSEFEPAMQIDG
Description: (§1) In vitro characterization of compounds 1, 2, and 3 in Gal4‐ROR hybrid reporter gene assays confirmed inverse RORγ agonism with micromolar to sub‐micromolar IC50 values (Table 1).
(§2) In vitro Characterization Methods
(§3) Hybrid reporter gene assays. The hybrid receptor plasmids pFA-CMV-hRORα-LBD (NR1F1, isoform 1, uniprot ID P35398-2, aa 266-523), pFA-CMV-hRORβ-LBD (NR1F2, isoform 2, uniprot ID Q92753-2, aa 216-470), and pFA-CMV-hRORγ-LBD (NR1F3, isoform 1, uniprot ID P51449, aa 263-518) encode the Gal4-DBD fused to the hinge region and ligand binding domain of the canonical isoform of the respective human nuclear receptor and were cloned as described previously[13,14] using cDNA from SourceBioScience (Nottingham, UK). The Gal4-responsive firefly luciferase reporter pFR-Luc (Stratagene, La Jolla, CA, USA) and pRL-SV40 (Promega, Madison, WI, USA; internal control) were used together with either pFA-CMV-NR-LBD clone for the hybrid reporter gene assays.
(§4) HEK293T cells (German Collection of Microorganisms and Cell Culture GmbH, DSMZ) were cultured in Dulbecco’s modified Eagle’s medium (DMEM), high glucose supplemented with 10 % fetal calf serum (FCS), sodium pyruvate (1 mM), penicillin (100 U/mL), and streptomycin (100 μg/mL) at 37 °C and 5 % CO2 and seeded in 96-well plates (3×10^4 cells/well) twenty-four hours prior to transfection. Before transfection, medium was changed to Opti -MEM without supplements and transient transfection with above mentioned plasmids (pFR-Luc, pRL-SV40 and one pFA-CMV-NR-LBD clone) was carried out with Lipofectamine LTX reagent (Invitrogen) according to the manufacturer’s protocol. Five hours after transfection, medium was changed to Opti -MEM supplemented with penicillin (100 U/mL) a nd streptomycin (100 μg/mL) additionally containing 0.1 % DMSO and the respective test compound or 0.1 % DMSO alone as untreated control. Each concentration was tested in duplicates and each experiment was repeated independently at least two times. Followi ng overnight (14−16 h) incubation, cells were assayed for luciferase activity using the Dual - Glo Luciferase Assay System (Promega) according to the manufacturer’s protocol. Luminescence was measured with a Tecan Spark luminometer (Tecan Deutschland GmbH, G ermany). Normalization of transfection efficiency and cell growth was done by division of firefly luciferase data by Renilla luciferase data and multiplying the value by 1000 resulting in relative light units (RLU). Fold reporter repression was obtained by dividing the mean RLU of a test compound at a respective concentration by the mean RLU of the 0.1% DMSO control. […]

RORβ = target: T2, RORβ (Homo sapiens, UniProt Q92753); experiment: Gal4-RORβ hybrid reporter gene assay in HEK293T cells; details: for IC50: Gal4 hybrid reporter gene assay, inverse agonism, mean±S.E.M., n≥4
T2 construct: uniprot ID Q92753-2, aa 216-470; expressed in transfected cells; host or cells: HEK293T
T2 sequence (Q92753 216-470): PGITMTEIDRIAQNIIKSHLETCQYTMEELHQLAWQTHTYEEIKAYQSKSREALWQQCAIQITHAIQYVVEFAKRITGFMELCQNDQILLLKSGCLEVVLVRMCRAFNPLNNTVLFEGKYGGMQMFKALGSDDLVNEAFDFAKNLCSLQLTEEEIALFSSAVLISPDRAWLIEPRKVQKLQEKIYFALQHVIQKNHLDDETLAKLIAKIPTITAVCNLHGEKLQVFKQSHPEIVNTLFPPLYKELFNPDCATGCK
Description: as §1, §2, §3, §4

RORγ = target: T3, RORγ (Homo sapiens, UniProt P51449); experiment: Gal4-RORγ hybrid reporter gene assay in HEK293T cells; details: for IC50: Gal4 hybrid reporter gene assay, inverse agonism, mean±S.E.M., n≥4; for potency on RORγ compared to the related RORα and RORβ isoforms (subtype preference): Gal4 hybrid reporter gene assays
T3 construct: uniprot ID P51449, aa 263-518; expressed in transfected cells; host or cells: HEK293T
T3 sequence (P51449 263-518): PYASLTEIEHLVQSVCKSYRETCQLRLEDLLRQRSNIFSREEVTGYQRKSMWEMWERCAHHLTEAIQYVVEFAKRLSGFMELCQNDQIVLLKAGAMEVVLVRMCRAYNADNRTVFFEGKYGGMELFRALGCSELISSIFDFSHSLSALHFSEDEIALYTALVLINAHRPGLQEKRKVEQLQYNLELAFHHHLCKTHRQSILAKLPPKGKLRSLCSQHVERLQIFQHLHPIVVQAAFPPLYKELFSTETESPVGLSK
Description: as §1, §2, §3
HEK293T cells (German Collection of Microorganisms and Cell Culture GmbH, DSMZ) were cultured in Dulbecco’s modified Eagle’s medium (DMEM), high glucose supplemented with 10 % fetal calf serum (FCS), sodium pyruvate (1 mM), penicillin (100 U/mL), and streptomycin (100 μg/mL) at 37 °C and 5 % CO2 and seeded in 96-well plates (3×10^4 cells/well) twenty-four hours prior to transfection. Before transfection, medium was changed to Opti -MEM without supplements and transient transfection with above mentioned plasmids (pFR-Luc, pRL-SV40 and one pFA-CMV-NR-LBD clone) was carried out with Lipofectamine LTX reagent (Invitrogen) according to the manufacturer’s protocol. Five hours after transfection, medium was changed to Opti -MEM supplemented with penicillin (100 U/mL) a nd streptomycin (100 μg/mL) additionally containing 0.1 % DMSO and the respective test compound or 0.1 % DMSO alone as untreated control. Each concentration was tested in duplicates and each experiment was repeated independently at least two times. Followi ng overnight (14−16 h) incubation, cells were assayed for luciferase activity using the Dual - Glo Luciferase Assay System (Promega) according to the manufacturer’s protocol. Luminescence was measured with a Tecan Spark luminometer (Tecan Deutschland GmbH, G ermany). Normalization of transfection efficiency and cell growth was done by division of firefly luciferase data by Renilla luciferase data and multiplying the value by 1000 resulting in relative light units (RLU). Fold reporter repression was obtained by dividing the mean RLU of a test compound at a respective concentration by the mean RLU of the 0.1% DMSO control. IC 50 values were obtained by plotting fold reporter activation vs test compound concentrations and fitting the resulting sigmoidal curve with a four-parameter logistic regression in SigmaPlot 12.5 (Systat Software GmbH, Erkrath, Germany). The Gal4 - ROR hybrid assays were validated with the reference inverse agonists SR1001 and SR1078 , which yielded IC50 values in agreement […]
(1 picture or pasted object on this page, not shown here)

[1] = precise IC50 could not be determined due to cytotoxicity

Row | Compound | IC50 (RORα) | activity on RORα (in words) (RORα; [1]) | IC50 (RORβ) | activity on RORβ (in words) (RORβ; [1]) | IC50 (RORγ) | potency on RORγ compared to the related RORα and RORβ isoforms (subtype preference) (RORγ)
1 | O=C1CC2(CCCC2)CC(=O)N1CCCCN1CCN(c2ccc(Cl)cc2)CC1 [Compound 1] | > 10 µM | additionally active | > 10 µM | additionally active | 4600 ± 500 nM | –
2 | O=S(=O)(Cc1ccccc1)N(Cc1ccc(N2CCC(C(F)(F)F)CC2)cc1F)C1CCC1 [Compound 2] | 23 ± 3 µM | – | 22 ± 1 µM | – | 370 ± 50 nM | more than tenfold higher potency
3 | O=S(=O)(Cc1ccccc1)N(Cc1ccc(N2CCC(C(F)(F)F)CC2)cc1)C1CCC1 [Compound 3] | 10 ± 1 µM | – | 7.6 ± 0.5 µM | – | 680 ± 70 nM | more than tenfold higher potency
